Experimental data taken from article PMC5218480 (PLoS ONE, 2017).

Test system: MV-4-11 cells
Assay: Gene expression microarray analysis (Affymetrix PrimeView) and GSEA
Format: cell-based, human
Parameters: RFU PODN (11730768_x_at) / Fold change /veh PODN (11730768_x_at) / RFU LINC00158 (11744669_a_at) / Fold change /veh LINC00158 (11744669_a_at) / RFU DUSP10 (11751237_a_at) / Fold change /veh DUSP10 (11751237_a_at) / RFU ID3 (11757404_x_at) / Fold change /veh ID3 (11757404_x_at) / RFU PLEKHG5 (11737974_s_at) / Fold change /veh PLEKHG5 (11737974_s_at) / RFU LRRC4B (11730491_at) / Fold change /veh LRRC4B (11730491_at) / RFU GIMAP4 (11747438_a_at) / Fold change /veh GIMAP4 (11747438_a_at) / RFU KRT8 (11758183_x_at) / Fold change /veh KRT8 (11758183_x_at) / RFU CNN1 (11734310_a_at) / Fold change /veh CNN1 (11734310_a_at) / RFU VPS37D (11726825_at) / Fold change /veh VPS37D (11726825_at) / RFU C10orf10 (11716522_x_at) / Fold change /veh C10orf10 (11716522_x_at) / RFU KIR2DL2 /// KIR2DL4 /// KIR2DL5A /// KIR2DL5B /// KIR2DS1 /// KIR2DS2 /// KIR2DS3 /// KIR2DS4 /// KIR3DL3 /// KIR3DL3 /// KIR3DS1 (11738374_at) / Fold change /veh KIR2DL2 /// KIR2DL4 /// KIR2DL5A /// KIR2DL5B /// KIR2DS1 /// KIR2DS2 /// KIR2DS3 /// KIR2DS4 /// KIR3DL3 /// KIR3DL3 /// KIR3DS1 (11738374_at) / RFU C1QL1 (11718748_at) / Fold change /veh C1QL1 (11718748_at) / RFU TMPRSS4 (11747572_a_at) / Fold change /veh TMPRSS4 (11747572_a_at) / RFU HAMP (11756126_x_at) / Fold change /veh HAMP (11756126_x_at) / RFU RNFT2 (11725882_a_at) / Fold change /veh RNFT2 (11725882_a_at) / RFU NR4A2 (11747474_a_at) / Fold change /veh NR4A2 (11747474_a_at) / RFU ABCC12 (11746883_a_at) / Fold change /veh ABCC12 (11746883_a_at) / RFU TMEM136 (11760407_x_at) / Fold change /veh TMEM136 (11760407_x_at) / RFU CLDN22 /// WWC2 (11732394_at) / Fold change /veh CLDN22 /// WWC2 (11732394_at) / RFU HLA-DPB1 (11760878_x_at) / Fold change /veh HLA-DPB1 (11760878_x_at) / RFU SPINT1 (11716480_a_at) / Fold change /veh SPINT1 (11716480_a_at) / RFU GAP43 (11754022_s_at) / Fold change /veh GAP43 (11754022_s_at) / RFU A4GNT (11735810_at) / Fold change /veh A4GNT (11735810_at) / RFU PRB3 (11715151_x_at) / Fold change /veh PRB3 (11715151_x_at) / RFU TUBB4B (11761932_at) / Fold change /veh TUBB4B (11761932_at) / RFU CAPN14 (11732068_a_at) / Fold change /veh CAPN14 (11732068_a_at) / RFU TMCC2 (11721928_a_at) / Fold change /veh TMCC2 (11721928_a_at) / RFU IRGQ (11745062_a_at) / Fold change /veh IRGQ (11745062_a_at) / RFU FAM174B (11720279_a_at) / Fold change /veh FAM174B (11720279_a_at) / RFU TMPRSS4 (11748680_a_at) / Fold change /veh TMPRSS4 (11748680_a_at) / RFU FAM212B (11763350_a_at) / Fold change /veh FAM212B (11763350_a_at) / RFU PLEKHG5 (11743358_a_at) / Fold change /veh PLEKHG5 (11743358_a_at) / RFU ZSCAN30 (11745921_a_at) / Fold change /veh ZSCAN30 (11745921_a_at) / RFU CMKLR1 (11741424_a_at) / Fold change /veh CMKLR1 (11741424_a_at) / RFU LOC101060620 /// MAPK8IP1 (11723275_at) / Fold change /veh LOC101060620 /// MAPK8IP1 (11723275_at) / RFU SPTSSB (11747773_x_at) / Fold change /veh SPTSSB (11747773_x_at) / RFU PRSS12 (11739890_at) / Fold change /veh PRSS12 (11739890_at) / RFU BIN1 (11741810_x_at) / Fold change /veh BIN1 (11741810_x_at) / RFU WNT11 (11732464_a_at) / Fold change /veh WNT11 (11732464_a_at) / RFU C10orf10 (11716521_a_at) / Fold change /veh C10orf10 (11716521_a_at) / RFU C5orf56 (11738089_at) / Fold change /veh C5orf56 (11738089_at) / RFU CYB561 (11721691_x_at) / Fold change /veh CYB561 (11721691_x_at) / RFU ANKRD19P (11752326_a_at) / Fold change /veh ANKRD19P (11752326_a_at) / RFU OR2T12 /// OR2T33 /// OR2T8 (11738714_s_at) / Fold change /veh OR2T12 /// OR2T33 /// OR2T8 (11738714_s_at) / RFU VCAN (11748164_a_at) / Fold change /veh VCAN (11748164_a_at) / RFU JSRP1 (11732532_at) / Fold change /veh JSRP1 (11732532_at) / RFU KRTAP10-11 (11738290_x_at) / Fold change /veh KRTAP10-11 (11738290_x_at) / RFU MYO3A (11730013_a_at) / Fold change /veh MYO3A (11730013_a_at) / RFU EBF3 (11725865_a_at) / Fold change /veh EBF3 (11725865_a_at) / RFU CAMK2N1 (11719241_x_at) / Fold change /veh CAMK2N1 (11719241_x_at) / RFU C5orf56 (11738088_a_at) / Fold change /veh C5orf56 (11738088_a_at) / RFU OLFML3 (11715873_a_at) / Fold change /veh OLFML3 (11715873_a_at) / RFU LOC100653217 /// NTM (11731650_a_at) / Fold change /veh LOC100653217 /// NTM (11731650_a_at) / RFU MAPK11 (11762145_a_at) / Fold change /veh MAPK11 (11762145_a_at) / RFU FIZ1 (11724087_x_at) / Fold change /veh FIZ1 (11724087_x_at) / RFU OASL (11726364_x_at) / Fold change /veh OASL (11726364_x_at) / RFU SOX15 (11748057_x_at) / Fold change /veh SOX15 (11748057_x_at) / RFU CD79A (11719716_a_at) / Fold change /veh CD79A (11719716_a_at) / RFU HIST1H1D (11736915_at) / Fold change /veh HIST1H1D (11736915_at) / RFU CASKIN2 (11723855_a_at) / Fold change /veh CASKIN2 (11723855_a_at) / RFU LOC730098 (11760151_x_at) / Fold change /veh LOC730098 (11760151_x_at) / RFU OR4N2 (11742367_at) / Fold change /veh OR4N2 (11742367_at) / RFU PRRT2 (11749266_a_at) / Fold change /veh PRRT2 (11749266_a_at) / RFU SNX32 (11753110_a_at) / Fold change /veh SNX32 (11753110_a_at) / RFU CDHR5 (11726645_a_at) / Fold change /veh CDHR5 (11726645_a_at) / RFU RCAN1 (11760418_a_at) / Fold change /veh RCAN1 (11760418_a_at) / RFU FAM167A (11723789_a_at) / Fold change /veh FAM167A (11723789_a_at) / RFU FAM26E (11764081_at) / Fold change /veh FAM26E (11764081_at) / RFU ISYNA1 (11749810_s_at) / Fold change /veh ISYNA1 (11749810_s_at) / RFU ACY1 (11761880_at) / Fold change /veh ACY1 (11761880_at) / RFU 11764098_at / Fold change /veh 11764098_at / RFU SAMD14 (11745864_x_at) / Fold change /veh SAMD14 (11745864_x_at) / RFU NPB (11741838_a_at) / Fold change /veh NPB (11741838_a_at) / RFU TMPRSS6 (11731388_a_at) / Fold change /veh TMPRSS6 (11731388_a_at) / RFU KRTAP10-2 (11738614_at) / Fold change /veh KRTAP10-2 (11738614_at) / RFU ARHGAP8 /// PRR5-ARHGAP8 (11727945_x_at) / Fold change /veh ARHGAP8 /// PRR5-ARHGAP8 (11727945_x_at) / RFU KRTAP5-7 /// NADSYN1 (11734609_at) / Fold change /veh KRTAP5-7 /// NADSYN1 (11734609_at) / RFU RASL12 (11751679_a_at) / Fold change /veh RASL12 (11751679_a_at) / RFU CDKN2B (11736163_a_at) / Fold change /veh CDKN2B (11736163_a_at) / RFU PRF1 (11729649_at) / Fold change /veh PRF1 (11729649_at) / RFU, ZNF638 /// ZNF638-IT1 / Fold change vs veh, ZNF638 /// ZNF638-IT1 / RFU, PANK3 / Fold change vs veh, PANK3 / RFU, SH3YL1 / Fold change vs veh, SH3YL1 / RFU, ZEB2 / Fold change vs veh, ZEB2 / RFU, NRIP1 / Fold change vs veh, NRIP1 / RFU, PTTG1IP / Fold change vs veh, PTTG1IP / RFU, CAPN2 / Fold change vs veh, CAPN2 / RFU, MED14 / Fold change vs veh, MED14 / RFU, SNORA58 / Fold change vs veh, SNORA58 / RFU, C1orf63 / Fold change vs veh, C1orf63 / RFU, LRRFIP1 / Fold change vs veh, LRRFIP1 / RFU, NDUFAF7 / Fold change vs veh, NDUFAF7 / RFU, SLC12A2 / Fold change vs veh, SLC12A2 / RFU, IBTK / Fold change vs veh, IBTK / RFU, ESF1 / Fold change vs veh, ESF1 / Fold change vs veh, TMEM50B / RFU, TAOK1 / Fold change vs veh, TAOK1 / RFU, ACBD3 / Fold change vs veh, ACBD3 / RFU, TMA16 / Fold change vs veh, TMA16 / RFU, RWDD3 / Fold change vs veh, RWDD3 / RFU, BCAT1 / Fold change vs veh, BCAT1 / RFU, EDEM3 / Fold change vs veh, EDEM3 / RFU, TMEM33 / Fold change vs veh, TMEM33 / RFU, WDR75 / Fold change vs veh, WDR75 / RFU, AHCTF1 / Fold change vs veh, AHCTF1 / RFU, TFRC / Fold change vs veh, TFRC / RFU, ZDHHC17 / Fold change vs veh, ZDHHC17 / RFU, NOM1 / Fold change vs veh, NOM1 / RFU, ARL8B / Fold change vs veh, ARL8B / RFU, ZBTB11 / Fold change vs veh, ZBTB11 / RFU, TAMM41 / Fold change vs veh, TAMM41 / RFU, KIAA1704 /// LOC100996395 / Fold change vs veh, KIAA1704 /// LOC100996395 / RFU, ING1 / Fold change vs veh, ING1 / RFU, TRMT61B / Fold change vs veh, TRMT61B / RFU, FUBP3 / Fold change vs veh, FUBP3 / RFU, TP53 / Fold change vs veh, TP53 / RFU, TNKS2 / Fold change vs veh, TNKS2 / RFU, ZFP14 / Fold change vs veh, ZFP14 / RFU, ACTR2 / Fold change vs veh, ACTR2 / RFU, PPP3R1 / Fold change vs veh, PPP3R1 / RFU, PIK3R1 / Fold change vs veh, PIK3R1 / RFU, HNRNPA1 / Fold change vs veh, HNRNPA1 / RFU, RNF170 / Fold change vs veh, RNF170 / RFU, ZNF28 / Fold change vs veh, ZNF28 / RFU, RNGTT / Fold change vs veh, RNGTT / RFU, OGT / Fold change vs veh, OGT / RFU, BRD1 / Fold change vs veh, BRD1 / RFU, MARS / Fold change vs veh, MARS / RFU, ZNF655 / Fold change vs veh, ZNF655 / RFU, FAHD1 / Fold change vs veh, FAHD1 / RFU, BDP1 / Fold change vs veh, BDP1 / RFU, LRRCC1 / Fold change vs veh, LRRCC1 / RFU, ARID1A / Fold change vs veh, ARID1A / RFU, ZNF146 / Fold change vs veh, ZNF146 / RFU, ZNF330 / Fold change vs veh, ZNF330 / RFU, GPN3 / Fold change vs veh, GPN3 / RFU, C9orf123 / Fold change vs veh, C9orf123 / RFU, N4BP2L2 / Fold change vs veh, N4BP2L2 / RFU, ARFIP1 / Fold change vs veh, ARFIP1 / RFU, FAM179B / Fold change vs veh, FAM179B / RFU, BCL10 / Fold change vs veh, BCL10 / RFU, UHRF1BP1L / Fold change vs veh, UHRF1BP1L / RFU, BET1 / Fold change vs veh, BET1 / RFU, CNOT2 / Fold change vs veh, CNOT2 / RFU, ZNF268 / Fold change vs veh, ZNF268 / Fold change vs veh, ZNF507 / RFU, DGCR2 / Fold change vs veh, DGCR2 / RFU, WDSUB1 / Fold change vs veh, WDSUB1 / Fold change vs veh, HSP90B1 /// MIR3652 / RFU, ADSS / Fold change vs veh, ADSS / RFU, GK / Fold change vs veh, GK / RFU, ZNF148 / Fold change vs veh, ZNF148 / RFU, TAF9 / Fold change vs veh, TAF9 / RFU, SLC1A5 / Fold change vs veh, SLC1A5 / RFU, SLMO2 / Fold change vs veh, SLMO2 / RFU, ABCC4 / Fold change vs veh, ABCC4 / RFU, LOC101060439 /// RAP1B / Fold change vs veh, LOC101060439 /// RAP1B / RFU, RFX7 / Fold change vs veh, RFX7 / RFU, GTPBP10 / Fold change vs veh, GTPBP10 / RFU, CNEP1R1 / Fold change vs veh, CNEP1R1 / RFU, BIVM-ERCC5 /// ERCC5 / Fold change vs veh, BIVM-ERCC5 /// ERCC5 / RFU, ILF3 / Fold change vs veh, ILF3 / RFU 11762660_at / Fold change /veh 11762660_at / RFU VCAN (11757783_s_at) / Fold change /veh VCAN (11757783_s_at) / RFU DDX43 (11728927_at) / Fold change /veh DDX43 (11728927_at) / RFU KRT8 (11758188_x_at) / Fold change /veh KRT8 (11758188_x_at) / RFU NKD1 (11759106_at) / Fold change /veh NKD1 (11759106_at) / RFU SRD5A1 (11742802_a_at) / Fold change /veh SRD5A1 (11742802_a_at) / RFU TPSAB1 /// TPSB2 (11721975_s_at) / Fold change /veh TPSAB1 /// TPSB2 (11721975_s_at) / RFU GSTM3 (11746129_a_at) / Fold change /veh GSTM3 (11746129_a_at) / RFU IL23R (11737362_x_at) / Fold change /veh IL23R (11737362_x_at) / RFU TMEM51 (11727254_a_at) / Fold change /veh TMEM51 (11727254_a_at) / RFU PIWIL2 (11732686_x_at) / Fold change /veh PIWIL2 (11732686_x_at) / RFU ORM1 (11744905_x_at) / Fold change /veh ORM1 (11744905_x_at) / RFU CCDC152 (11743942_at) / Fold change /veh CCDC152 (11743942_at) / RFU ECM1 (11717891_a_at) / Fold change /veh ECM1 (11717891_a_at) / RFU IL23R (11748794_a_at) / Fold change /veh IL23R (11748794_a_at) / RFU TNFAIP8L3 (11732012_x_at) / Fold change /veh TNFAIP8L3 (11732012_x_at) / RFU MBOAT4 (11741988_at) / Fold change /veh MBOAT4 (11741988_at) / RFU 11764193_at / Fold change /veh 11764193_at / RFU TMEM53 (11763286_at) / Fold change /veh TMEM53 (11763286_at) / RFU MAGEB2 (11727129_at) / Fold change /veh MAGEB2 (11727129_at) / RFU TMEM200A (11744735_a_at) / Fold change /veh TMEM200A (11744735_a_at) / RFU CCDC152 (11751479_a_at) / Fold change /veh CCDC152 (11751479_a_at) / RFU FAM211A (11726209_a_at) / Fold change /veh FAM211A (11726209_a_at) / RFU RGS16 (11746705_a_at) / Fold change /veh RGS16 (11746705_a_at) / RFU VCAN (11755009_s_at) / Fold change /veh VCAN (11755009_s_at) / RFU RHOB (11743442_s_at) / Fold change /veh RHOB (11743442_s_at) / RFU RGS16 (11720943_a_at) / Fold change /veh RGS16 (11720943_a_at) / RFU RGS16 (11720944_at) / Fold change /veh RGS16 (11720944_at) / RFU, VPS4B / Fold change vs veh, VPS4B / RFU, CREB1 / Fold change vs veh, CREB1 / RFU, DNAJC13 / Fold change vs veh, DNAJC13 / RFU, GNAQ / Fold change vs veh, GNAQ / RFU, CDK5R1 / Fold change vs veh, CDK5R1 / RFU, ZRANB3 / Fold change vs veh, ZRANB3 / RFU, CUL4A / Fold change vs veh, CUL4A / RFU, CCNY / Fold change vs veh, CCNY / RFU, UFL1 / Fold change vs veh, UFL1 / RFU, COG3 / Fold change vs veh, COG3 / RFU, DIAPH2 / Fold change vs veh, DIAPH2 / RFU, SKA2 / Fold change vs veh, SKA2 / RFU, AFF3 / Fold change vs veh, AFF3 / RFU, LMF1 / Fold change vs veh, LMF1 / RFU, IPO11 / Fold change vs veh, IPO11 / RFU, DFFB / Fold change vs veh, DFFB / RFU, FOXP1 / Fold change vs veh, FOXP1 / RFU, CARD8 / Fold change vs veh, CARD8 / RFU, STRN3 / Fold change vs veh, STRN3 / RFU, ADK / Fold change vs veh, ADK / RFU, RASSF2 / Fold change vs veh, RASSF2 / RFU, WIPF1 / Fold change vs veh, WIPF1 / RFU, LARP1B / Fold change vs veh, LARP1B / RFU, RASA1 / Fold change vs veh, RASA1 / RFU, RB1 / Fold change vs veh, RB1 / RFU, PPFIA1 / Fold change vs veh, PPFIA1 / RFU, MAT2A / Fold change vs veh, MAT2A / RFU, CCT5 / Fold change vs veh, CCT5 / RFU, WDR92 / Fold change vs veh, WDR92 / RFU, CUX1 / Fold change vs veh, CUX1 / RFU, TTC7A / Fold change vs veh, TTC7A / RFU, TMEM135 / Fold change vs veh, TMEM135 / RFU, DEPTOR / Fold change vs veh, DEPTOR / RFU, CPM / Fold change vs veh, CPM / RFU, DNAJB6 / Fold change vs veh, DNAJB6 / RFU, CACNA2D3 / Fold change vs veh, CACNA2D3 / RFU, DTX4 / Fold change vs veh, DTX4 / RFU, TFCP2 / Fold change vs veh, TFCP2 / RFU, GMCL1 /// GMCL1P1 / Fold change vs veh, GMCL1 /// GMCL1P1 / RFU, AEBP2 / Fold change vs veh, AEBP2 / RFU, SNHG1 /// SNORD22 /// SNORD25 /// SNORD26 /// SNORD27 /// SNORD28 /// SNORD29 /// SNORD31 / Fold change vs veh, SNHG1 /// SNORD22 /// SNORD25 /// SNORD26 /// SNORD27 /// SNORD28 /// SNORD29 /// SNORD31 / Fold change (Aza/veh), C12orf56 (ProbeSet 11735607_a_at) / Fold change (ACY-1035/veh), C12orf56 (ProbeSet 11735607_a_at) / Fold change (Aza/veh), FGFR1OP (ProbeSet 11751329_s_at) / Fold change (ACY-1035/veh), FGFR1OP (ProbeSet 11751329_s_at) / Fold change (Aza/veh), VPS36 (ProbeSet 11739960_a_at) / Fold change (ACY-1035/veh), VPS36 (ProbeSet 11739960_a_at) / RFU SYPL1 (11715823_x_at) / Fold change /veh SYPL1 (11715823_x_at) / RFU IGFBP7 (11715501_s_at) / Fold change /veh IGFBP7 (11715501_s_at) / RFU REEP3 (11722064_at) / Fold change /veh REEP3 (11722064_at) / RFU IGLL1 (11728026_x_at) / Fold change /veh IGLL1 (11728026_x_at): dose or concentration left out as unconfirmed
Details: MV-4-11 cells, 48 hours

SMILES: Nc1ncn([C@@H]2O[C@H](CO)[C@@H](O)[C@H]2O)c(=O)n1 [azacitidine]
- Fold change /veh C10orf10 (11716521_a_at): 1.13
